Experimental data reported in US6969738B2, “Malic acid diester surfactants” (Air Products and Chemicals, Inc., priority 1999, dated 2005).

Tests used:
Format in all cases: physicochemical
[1] = Solubility limit in water from surface tension/ln concentration curve; conditions: distilled water, 25° C.
Procedure: (§1) Solutions of the materials of Examples 1-10 in distilled water were prepared. […] The pC20 value is defined as the negative logarithm of the molar concentration of surfactant required to decrease the surface tension of an aqueous solution to […], that is, 20 dyne/cm below that of pure water when the measurement is performed at 0.1 b/s. This value is a measure of the efficiency of a surfactant. […] In addition, the relative efficiency of surfactants can be obtained by comparing surface tension reduction of solutions containing the same amount of different surfactants. Such data is given for 0.1 wt % solutions of the dialkylmalates at 1.0 and 6.0 bubbles/second (b/s). The solubility limit was determined by intersection of the linear portion of a surface tension/In concentration curve with the limiting surface tension as is described in many textbooks. The limiting surface tensions at 0.1, 1, 6 and 20 b/s represent the lowest surface tensions in water which can be achieved at the given surface creation rates for a given surfactant regardless of the amount of surfactant used and is used to evaluate the effectiveness of a surfactant. These values give information about the relative ability of a surfactant to reduce surface defects under near-equilibrium conditions (0.1 b/s) through very dynamic conditions (20 b/s). Lower surface tensions would allow the elimination of defects upon application of a formulation onto lower energy surfaces.

[2] = Foam test of 0.1 wt % solutions, procedure based upon ASTM D 1173-53; conditions: 0.1 wt % solution
Procedure: The foaming properties of 0.1 wt % solutions of the dialkylmalate surfactants of this invention were examined using a procedure based upon ASTM D 1173-53. In this test, a 0.1 wt % solution of the surfactant is added from an elevated foam pipette to a foam receiver containing the same solution. The foam height is measured at the completion of the addition (“Initial Foam Height”) and the time required for the foam to dissipate at the air-liquid interface (“Time to 0 Foam”) is recorded. This test provides a comparison between the foaming characteristics of various surfactant solutions. In general, in coatings, inks, adhesives, fountain solutions and agricultural compositions, foam is undesirable because it complicates handling and can lead to coating and print defects, and to inefficient application of agricultural materials.

[3] = Dynamic surface tension of aqueous solutions, maximum bubble pressure method; conditions: for γ(0.1 wt % solution) (1 b/s) / γ(0.1 wt % solution) (6 b/s) / pC20 / limiting γ (0.1 b/s) / limiting γ (1 b/s) / limiting γ (6 b/s) / limiting γ (20 b/s): 25° C.; for pC20: negative logarithm of molar concentration giving 52.1 dyne/cm at 0.1 b/s; for limiting γ (0.1 b/s) / limiting γ (1 b/s) / limiting γ (6 b/s) / limiting γ (20 b/s): water
Text: In the following Examples dynamic surface tension data were obtained for aqueous solutions of various compounds using the maximum bubble pressure method at bubble rates from 0.1 bubbles/second (b/s) to 20 b/s. […] In practical terms, high bubble rates correspond to high printing speeds in lithographic printing, high spray or roller velocities in coating applications, and rapid application rates for agricultural products.
as §1

| Structure (SMILES) | solubility limit [1] [Weight %] | initial foam [2] [cm] | time to zero foam [2] [s] | γ(0.1 wt % solution) (1 b/s) [3] [dyne/cm] | γ(0.1 wt % solution) (6 b/s) [3] [dyne/cm] | pC20 [3] | limiting γ (0.1 b/s) [3] [Dyne/cm] | limiting γ (1 b/s) [3] [Dyne/cm] | limiting γ (6 b/s) [3] [Dyne/cm] | limiting γ (20 b/s) ([3]; 20 b/s) [Dyne/cm] | decrease in the limiting surface tension compared to dibutyl-DL-malate ([3]; 20 b/s) [dyne/cm] | limiting γ (20 b/s) ([3]; 20 b/s, listed as diisobutyl-DL-malate) | limiting γ (20 b/s) ([3]; 20 b/s, listed as diisopropyl-(S)-(−)-malate) [Dyne/cm] |
| --- | --- | --- | --- | --- | --- | --- | --- | --- | --- | --- | --- | --- | --- |
| CCCCOC(=O)CC(O)C(=O)OCCCC (racemic) [Example 2, Dibutyl-DL-malate] | 0.3 | 0.9 | 20 | 43.8 | 44.8 | 3.04 | 35.8 | 36.0 | 36.5 | 38.6 |  |  |  |
| CC(C)COC(=O)CC(O)C(=O)OCC(C)C (racemic) [Example 3, Diisobutyl-DL-malate] | 0.4 | 0.6 | 0.2 | 44.1 | 45.2 | 3.08 | 33.5 | 33.3 | 33.4 | 35.3 | 3.3 | less than 36 Dyne/cm |  |
| CCC(C)OC(=O)CC(O)C(=O)OC(C)CC (racemic) [Example 4, Di-sec-butyl-DL-malate] | 0.6 | 1.0 | 60 | 47.8 | 48.5 | 2.77 | 36.5 | 36.7 | 37.3 | 38.1 |  |  |  |
| CC(C)OC(=O)C[C@H](O)C(=O)OC(C)C [Example 1, Diisopropyl-(S)-(−)-malate] | 5 | 1.3 | 14 | 59.2 | 60.1 | 1.83 | 33.6 | 33.8 | 34.0 | 35.3 |  |  | < 34 |

Further lines, results first:

| solubility limit [1] [Weight %] | initial foam [2] [cm] | time to zero foam [2] [s] | γ(0.1 wt % solution) (1 b/s) [3] [dyne/cm] | γ(0.1 wt % solution) (6 b/s) [3] [dyne/cm] | pC20 [3] | limiting γ (0.1 b/s) [3] [Dyne/cm] | limiting γ (1 b/s) [3] [Dyne/cm] | limiting γ (6 b/s) [3] [Dyne/cm] | limiting γ (20 b/s) ([3]; 20 b/s) [Dyne/cm] | decrease in the limiting surface tension compared to dibutyl-DL-malate ([3]; 20 b/s) [dyne/cm] | limiting γ (20 b/s) ([3]; 20 b/s, listed as diisobutyl-DL-malate) | limiting γ (20 b/s) ([3]; 20 b/s, listed as diisopropyl-(S)-(−)-malate) [Dyne/cm] | Structure (SMILES) |
| --- | --- | --- | --- | --- | --- | --- | --- | --- | --- | --- | --- | --- | --- |
| 0.03 | 0.5 | 0.2 | 38.2 | 40.5 | 3.52 | 36.8 | 38.2 | 40.5 | 50.1 |  |  |  | CCCCCOC(=O)CC(O)C(=O)OCCCCC (racemic) [Example 5, Dipentyl-DL-malate] |
| 0.04 | 0.3 | 0.3 | 36.8 | 39.5 | 3.86 | 35.6 | 36.8 | 39.5 | 48.0 |  |  |  | CC(C)CCOC(=O)CC(O)C(=O)OCCC(C)C (racemic) [Example 6, Diisoamyl-DL-malate] |
| 0.04 | 1.2 | 0.1 | 38.9 | 41.2 | 3.47 | 37.8 | 38.9 | 41.2 | 49.7 |  |  |  | CCC(C)COC(=O)CC(O)C(=O)OCC(C)CC (racemic) [Example 7, Di(2-methylbutyl)-DL-malate] |
| 0.005 | 0.5 | 0.1 | 58.8 | 52.0 | 3.25 | 55.6 | 65.2 | 69.3 | 71.2 |  |  |  | CCCCCCOC(=O)CC(O)C(=O)OCCCCCC (racemic) [Example 8, Dihexyl-DL-malate] |
| 0.02 | 0 | 0 | 46.2 | 56.4 | 3.84 | 40.8 | 50.9 | 63.9 | 69.4 |  |  |  | CC(C)CC(C)OC(=O)CC(O)C(=O)OC(C)CC(C)C (racemic) [Example 9, Di(4-methyl-2-pentyl)-DL-malate] |
| 0.08 | 0 | 0 | 61.5 | 65.2 | 2.23 | 54.0 | 57.7 | 60.3 | 70.0 |  |  |  | O=C(CC(O)C(=O)OCc1ccccc1)OCc1ccccc1 (racemic) [Example 10, Dibenzyl-DL-malate] |
